Reference: paper PMC6305410, “High-Throughput Screening for Bacterial Glycosyltransferase Inhibitors” (Frontiers in Cellular and Infection Microbiology, 2018)

Target: T1, NleB1 (Escherichia coli, UniProt Q8XBX8)
T1 construct: GST-EHEC-NleB1 in pET42a (GST/His tagged), expressed in E. coli BL21 (DE3), nickel purified; some tag cleavage noted
Settings: inhibitor; for % NleB1 inhibition (µM compound) / 10: 10 µM; for % NleB1 inhibition (µM compound) / 20: 20 µM; for % NleB1 inhibition (µM compound) / 40: 40 µM; for % NleB1 inhibition (µM compound) / 80: 80 µM; for % NleB1 inhibition (µM compound) / 160: 160 µM

Row | SMILES | % NleB1 inhibition (µM compound) / 10 [%] | % NleB1 inhibition (µM compound) / 20 [%] | % NleB1 inhibition (µM compound) / 40 [%] | % NleB1 inhibition (µM compound) / 80 [%] | % NleB1 inhibition (µM compound) / 160 [%]
1 | O=C(Cn1cc(COc2c(F)c(F)cc(F)c2F)nn1)c1ccc(O)cc1 [KUC104092N] | 39.5 | 42.1 | 57.8 | 67.2 | 80.6
2 | C[C@H]1CC[C@]2(CCC(=O)N2CCCOC(=O)c2ccccc2)CC1 [KUC110967N] | 45.2 | 53.8 | 62.0 | 71.4 | 78.5
3 | CCCCN1CC(COCc2ccccc2)Oc2cccc(Oc3ccc(F)cc3OC)c2S1(=O)=O (stereo not drawn) [KUC106008N] | 21.4 | 22.4 | 20.7 | 31.6 | 55.9
4 | CCCC(=O)c1ccc(OCc2cn(CC(=O)c3ccc(O)cc3)nn2)cc1 [KUC104099N] | 32.9 | 42.2 | 45.2 | 62.5 | 77.5
5 | COc1ccc(-c2ccc(CN3C(C(C)C)C(=O)N(Cc4cn(CCC5OCCO5)nn4)CCS3(=O)=O)cc2)cn1 (stereo not drawn) [KUC105137N] | 13.7 | 25.7 | 41.5 | 64.5 | 79.7
6 | CC1C(=O)N(Cc2cn(CCC3OCCCO3)nn2)CCS(=O)(=O)N1Cc1ccc(-c2cccc(N(C)C)c2)cc1 (stereo not drawn) [KUC104889N] | 26.6 | 28.9 | 29.5 | 35.9 | 44.5
7 | O=C(Cn1cc(COc2cccc([N+](=O)[O-])c2)nn1)c1ccc(O)cc1 [KUC104086N] | 24.5 | 24.5 | 34.2 | 32.8 | 50.5
8 | CC(C)CN1CCC(=O)N(CCC#N)CC1 [KUC102485N] | 16.0 | 23.1 | 17.6 | 19.0 | 20.8
9 | O=C(Cn1cc(COc2ccccc2C(F)(F)F)nn1)c1ccc(O)cc1 [KUC104085N] | 36.1 |  | 51.8 | 63.6 | 78.4
10 | Cc1cccc(C(=O)N2CCC(=O)N([C@H](COCc3ccc(Cl)cc3)Cc3ccccc3)CC2)c1 [KUC100143N] | 35.9 | 38.0 | 39.2 | 42.0 | 63.3
11 | O=C(c1ccc([N+](=O)[O-])cc1)N1[C@H](COCc2ccccc2)C=CS1(=O)=O [KUC107029N] | 30.6 | 41.5 | 43.4 | 48.6 | 43.4
12 | C[C@@H](NS(=O)(=O)c1cc(Cl)ccc1F)[C@H](O)c1ccccc1 [KUC103993N] | 27.5 | 31.8 | 31.8 | 34.5 | 37.0
13 | O=C(NC1CCC(=O)N(CCSc2ccccc2)CC1)OCc1ccccc1 (stereo not drawn) [KUC102830N] | 16.9 | 20.9 | 21.9 | 25.7 | 38.2
14 | CC(=O)c1ccc(OCc2cn(CC(=O)c3ccc(O)cc3)nn2)c(F)c1 [KUC104088N] | 45.4 | 47.7 | 59.8 | 76.5 | 92.0
15 | CCCCCCCCN1[C@@H](CC(=O)OC)c2ccc(/C=C/C(=O)OC)cc2S1(=O)=O [KUC102268N] | 25.3 | 20.8 | 27.1 | 33.3 | 27.9
16 | CC(=O)Nc1ccc(OCc2cn(CC(=O)c3ccc(O)cc3)nn2)cc1 [KUC104101N] | 48.1 | 59.3 | 74.6 | 91.3 | 98.1
17 | CN1CCC(N2CCN(C3CN(Cc4cn(Cc5cccc(Cl)c5)nn4)S(=O)(=O)C3)CC2)CC1 (stereo not drawn) [KUC108133N] | 4.1 | 18.2 | 22.3 | 18.0 | 18.2
18 | C[C@@H]1CCCN1c1ccc2c(c1)O[C@@H]1CCN(C1)S2(=O)=O [KUC111139N] | 32.7 | 34.1 | 35.7 | 38.7 | 40.7
19 | COCOCCn1cc(CN2CCS(=O)(=O)N(Cc3ccc(-c4ccc(F)nc4)cc3)C(CC(C)C)C2=O)nn1 (stereo not drawn) [KUC105149N] | 34.4 | 38.8 | 42.6 | 55.9 | 69.5
20 | COc1cccc(N2[C@@H](CC(=O)O)c3ccc(/C=C/C(=O)O)cc3S2(=O)=O)c1 [KUC102262N] | 27.6 | 34.2 | 35.9 | 41.7 | 46.5
